Results as given in the NIST ThermoML archive (doi:10.1016/j.jct.2012.04.011).
Numbers after ± are expanded uncertainties.

Test: relative permittivity at zero frequency (dimensionless)
Conditions: 298.2 K; 101.33 kPa; Liquid; Parallel plate capacitor

relative permittivity at zero frequency	SMILES
2.01 ± 0.01	CC1CCCCC1 [methylcyclohexane]
2.02 ± 0.01	C1CCCCC1 [cyclohexane]

SMILES	relative permittivity at zero frequency
Cc1ccccc1 [toluene]	2.38 ± 0.01

Test: not given
Conditions: 298.15 K; 101.33 kPa; Liquid; Vibrating tube method

mass density	SMILES
764.92 ± 0.24 kg/m3	CC1CCCCC1 [methylcyclohexane]
773.78 ± 0.24 kg/m3	C1CCCCC1 [cyclohexane]

SMILES	mass density
Cc1ccccc1 [toluene]	862.02 ± 0.24 kg/m3

Test: refractive index (Na D-line) (dimensionless)
Conditions: 298.2 K; 101.33 kPa; Liquid; Standard Abbe refractometry

refractive index	SMILES
1.4198 ± 0.0007	CC1CCCCC1 [methylcyclohexane]
1.4234 ± 0.0007	C1CCCCC1 [cyclohexane]
1.3325 ± 0.0007	O [water]

SMILES	refractive index
Cc1ccccc1 [toluene]	1.4938 ± 0.0007
